# Measurements published in US9597307B2 (priority 2012, dated 2017).
# Like-named read-outs stand apart in the source and are kept apart here.
# What was measured:
# T2D signature = details: Wistar rats, high fructose diet, two weeks of daily injections 10 mg/kg; p<0.0001 using Fisher's exact test
# Description: In a first attempt to use gene network analyses for drug repositioning, a panel of 50 genes that are perturbed in the liver in T2D (‘T2D signature’) were identified. The genes were selected using differential expression analysis, causality tests, and a Bayesian network algorithm to identify genes that regulate the expression of several other disease genes (‘key regulators’).
# A high fructose diet was used to induce insulin resistance on a group of Wistar rats.
# Wistar rats = details: high fructose diet, two weeks of daily injections 10 mg/kg, vs vehicle-treated control
# Description: For intraperitoneal pyruvate tolerance tests, a high fructose diet was used to induce insulin resistance on a group of Wistar rats. […] Intraperitoneal pyruvate tolerance tests are a procedure where pyruvate is converted to glucose in gluconeo-genesis. The test specifically reflects the insulin sensitivity of the liver.
# [1] = cited from earlier work; for toxicity in studies / clinical testing: other indications (cancer and immune diseases), high doses
# H-4-II-E cells = details: without or with 10 or 100 nM insulin, FIG. 3
# Description: H-4-II-E cells were seeded 110,000/well in 24-well plates in their usual medium (EMEM from ATCC, no 30-2003 with addition of 10% FBS and penicillin/streptomycin) at day 0 and incubated with 0.25 mM palmitate-BSA (ratio 10:3) for 16 h ON day 2-3. […] The cells were washed 3 times with glucose output medium (GOM) without glucogenic substrates (118 mM NaCl, 4.7 mM KCl, 1.2 mM MgSO4, 1.2 mM KH2P04, 1.2 mM CaC12, 20 mM NaHCO3, 25 mM HEPES pH 7.4 and 0.025% BSA). Then 500 ul of GOM (118 mM NaCl, 4.7 mM KCl, 1.2 mM MgSO4, 1.2 mM KH2PO4, 1.2 mM CaCl2, 20 mM NaCO3, 25 mM HEPES pH 7.4, 0.025% BSA, 20 mM lactate, 2 mM pyruvate and 10 mM glutamine) and GOM with the addition of 10 or 100 nM insulin was added, and the cells were allowed to incubate for 5 h. After that, most of the incubation medium (375 ul) was removed and used for glucose measurements. The cells were washed once with cold PBS and lyzed with 200 ul RIPA buffer for determination of protein concentration. […] Glucose concentration in the buffer samples was determined using the AmplexRed Glucose/Glucose Oxidase Assay Kit (LifeTechnologies no. A22189) following the manufacturer's instructions. Protein concentration in the cell lysates was measured using Pierce BCA Protein Assay Kit (ThermoScientific no. 23225).
structure (smiles),measurement,setting,value
C[S+]([O-])CCCCN=C=S (stereo not drawn) [sulforaphane],result of the experiments repeated in animals on high-fat diet,animals on high-fat diet,positive results
same,reversal of genes in the T2D signature in liver,T2D signature,a major fraction of the genes in the T2D signature was reversed
same,intraperitoneal pyruvate tolerance (insulin sensitivity of the liver),Wistar rats; FIG. 2,significant positive effect
same,intraperitoneal pyruvate tolerance (insulin sensitivity of the liver),"Wistar rats; FIG. 2, listed as Sulforaphane",showed significant differences from a vehicle-treated control group
same,serious adverse events in ongoing studies,[1]; ongoing studies for other indications,no serious adverse events have been reported
same,toxicity in studies / clinical testing,[1],low toxicity even at high doses
same,toxicity in studies / clinical testing,[1]; listed as Sulforaphane,very low toxicity even at high doses
same,"hepatic glucose output, insulin-sensitive liver cells",H-4-II-E cells; 10 uM sulforaphane for 28 h,decreases hepatic glucose output
same,"hepatic glucose output, insulin-resistant (induced by palmitate) liver cells","H-4-II-E cells; 0.25 mM palmitate-BSA 16 h, then 10 uM sulforaphane for 28 h",decreases hepatic glucose output
